Results published in PubChem BioAssay (NCI).
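Step 1: Grow cells in 96-well plates. Step 2: Expose to compound for 48 hours at 5 concentrations. Step 3: Interpolate endpoints linearly; if unreached, use highest concentration. GI50 is the concentration that inhibits growth by half. TGI is the concentration that stops growth completely.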

Tests used:
Test in all cases: growth of human tumour cells (NCI), 48 h
786-0 renal = test system: 786-0 renal
A498 renal = test system: A498 renal
A549 NSCLC = test system: A549 NSCLC
ACHN renal = test system: ACHN renal
BT-549 breast = test system: BT-549 breast
CAKI-1 renal = test system: CAKI-1 renal
CCRF-CEM leukemia = test system: CCRF-CEM leukemia
COLO 205 colon = test system: COLO 205 colon
DU-145 prostate = test system: DU-145 prostate
HCC-2998 colon = test system: HCC-2998 colon
HCT-116 colon = test system: HCT-116 colon
HCT-15 colon = test system: HCT-15 colon
HL-60(TB) leukemia = test system: HL-60(TB) leukemia
HOP-62 NSCLC = test system: HOP-62 NSCLC
HS 578T breast = test system: HS 578T breast
HT29 colon = test system: HT29 colon
IGROV1 ovarian = test system: IGROV1 ovarian
K-562 leukemia = test system: K-562 leukemia
KM12 colon = test system: KM12 colon
LOX IMVI melanoma = test system: LOX IMVI melanoma
M14 melanoma = test system: M14 melanoma
MALME-3M melanoma = test system: MALME-3M melanoma
MCF7 breast = test system: MCF7 breast
MDA-MB-231 breast = test system: MDA-MB-231 breast
MDA-MB-435 = test system: MDA-MB-435
MOLT-4 leukemia = test system: MOLT-4 leukemia
NCI-H226 lung = test system: NCI-H226 lung
NCI-H23 lung = test system: NCI-H23 lung
NCI-H460 lung = test system: NCI-H460 lung
NCI-H522 lung = test system: NCI-H522 lung
NCI/ADR-RES ovarian = test system: NCI/ADR-RES ovarian
OVCAR-4 ovarian = test system: OVCAR-4 ovarian
OVCAR-5 ovarian = test system: OVCAR-5 ovarian
OVCAR-8 ovarian = test system: OVCAR-8 ovarian
RPMI-8226 leukemia = test system: RPMI-8226 leukemia
RXF 393 renal = test system: RXF 393 renal
SF-268 CNS = test system: SF-268 CNS
SF-295 CNS = test system: SF-295 CNS
SF-539 CNS = test system: SF-539 CNS
SK-MEL-2 melanoma = test system: SK-MEL-2 melanoma
SK-MEL-28 melanoma = test system: SK-MEL-28 melanoma
SK-MEL-5 melanoma = test system: SK-MEL-5 melanoma
SK-OV-3 ovarian = test system: SK-OV-3 ovarian
SN12C renal = test system: SN12C renal
SNB-19 CNS = test system: SNB-19 CNS
SNB-75 CNS = test system: SNB-75 CNS
SR leukemia = test system: SR leukemia
SW-620 colon = test system: SW-620 colon
TK-10 renal = test system: TK-10 renal
U251 CNS = test system: U251 CNS
UACC-257 melanoma = test system: UACC-257 melanoma
UACC-62 melanoma = test system: UACC-62 melanoma
UO-31 renal = test system: UO-31 renal

CCCCN(CCCC)CCc1c(C)cc(C)c(CCN(CCCC)CCCC)c1O
GI50 (786-0 renal): 2.96 µM | TGI (786-0 renal): 9.93 µM | GI50 (A498 renal): 2.3 µM | TGI (A498 renal): 7.31 µM | GI50 (A549 NSCLC): 3 µM | TGI (A549 NSCLC): > 100 µM | GI50 (ACHN renal): 3.47 µM | TGI (ACHN renal): > 100 µM | GI50 (BT-549 breast): 2.78 µM | TGI (BT-549 breast): 6.87 µM | GI50 (CAKI-1 renal): 2.17 µM | TGI (CAKI-1 renal): 7.35 µM | GI50 (CCRF-CEM leukemia): 3.12 µM | TGI (CCRF-CEM leukemia): > 100 µM | GI50 (COLO 205 colon): 1.96 µM | TGI (COLO 205 colon): 4.14 µM | GI50 (DU-145 prostate): 3.76 µM | TGI (DU-145 prostate): > 100 µM | GI50 (HCC-2998 colon): 3.17 µM | TGI (HCC-2998 colon): 32.6 µM | GI50 (HCT-116 colon): 1.87 µM | TGI (HCT-116 colon): 8.34 µM | GI50 (HCT-15 colon): 3.06 µM | TGI (HCT-15 colon): 13 µM | GI50 (HL-60(TB) leukemia): 2.51 µM | TGI (HL-60(TB) leukemia): 8.17 µM | GI50 (HOP-62 NSCLC): 3.3 µM | TGI (HOP-62 NSCLC): 16.8 µM | GI50 (HS 578T breast): 2.7 µM | TGI (HS 578T breast): 8.59 µM | GI50 (HT29 colon): 2.52 µM | TGI (HT29 colon): 13 µM | GI50 (IGROV1 ovarian): 3.69 µM | TGI (IGROV1 ovarian): 35.6 µM | GI50 (K-562 leukemia): 2.25 µM | TGI (K-562 leukemia): > 100 µM | GI50 (KM12 colon): 3.2 µM | TGI (KM12 colon): 21.2 µM | GI50 (LOX IMVI melanoma): 2.67 µM | TGI (LOX IMVI melanoma): > 100 µM | GI50 (M14 melanoma): 3.15 µM | TGI (M14 melanoma): 20.8 µM | GI50 (MALME-3M melanoma): 2.94 µM | TGI (MALME-3M melanoma): 11.3 µM | GI50 (MCF7 breast): 2.39 µM | TGI (MCF7 breast): 8.13 µM | GI50 (MDA-MB-231 breast): 2.43 µM | TGI (MDA-MB-231 breast): 8.56 µM | GI50 (MDA-MB-435): 3.11 µM | TGI (MDA-MB-435): 53.2 µM | GI50 (MOLT-4 leukemia): 2.73 µM | TGI (MOLT-4 leukemia): 10.8 µM | GI50 (NCI-H226 lung): 3.16 µM | TGI (NCI-H226 lung): 37.8 µM | GI50 (NCI-H23 lung): 2.76 µM | TGI (NCI-H23 lung): 23.7 µM | GI50 (NCI-H460 lung): 2.91 µM | TGI (NCI-H460 lung): 9.59 µM | GI50 (NCI-H522 lung): 2.59 µM | TGI (NCI-H522 lung): 7.54 µM | GI50 (NCI/ADR-RES ovarian): 3.63 µM | TGI (NCI/ADR-RES ovarian): 88.1 µM | GI50 (OVCAR-4 ovarian): 3.13 µM | TGI (OVCAR-4 ovarian): > 100 µM | GI50 (OVCAR-5 ovarian): 3.26 µM | TGI (OVCAR-5 ovarian): > 100 µM | GI50 (OVCAR-8 ovarian): 3.28 µM | TGI (OVCAR-8 ovarian): > 100 µM | GI50 (RPMI-8226 leukemia): 2.24 µM | TGI (RPMI-8226 leukemia): 7.13 µM | GI50 (RXF 393 renal): 2.4 µM | TGI (RXF 393 renal): 7.23 µM | GI50 (SF-268 CNS): 3.23 µM | TGI (SF-268 CNS): > 100 µM | GI50 (SF-295 CNS): 2.2 µM | TGI (SF-295 CNS): 6.97 µM | GI50 (SF-539 CNS): 3.51 µM | TGI (SF-539 CNS): 28.2 µM | GI50 (SK-MEL-2 melanoma): 2.24 µM | TGI (SK-MEL-2 melanoma): 5.78 µM | GI50 (SK-MEL-28 melanoma): 3.97 µM | TGI (SK-MEL-28 melanoma): > 100 µM | GI50 (SK-MEL-5 melanoma): 1.97 µM | TGI (SK-MEL-5 melanoma): 4.1 µM | GI50 (SK-OV-3 ovarian): 2.68 µM | TGI (SK-OV-3 ovarian): 8.53 µM | GI50 (SN12C renal): 2.85 µM | TGI (SN12C renal): 9.43 µM | GI50 (SNB-19 CNS): 3.04 µM | TGI (SNB-19 CNS): > 100 µM | GI50 (SNB-75 CNS): 2.52 µM | TGI (SNB-75 CNS): 40.3 µM | GI50 (SR leukemia): 2.16 µM | TGI (SR leukemia): 12.7 µM | GI50 (SW-620 colon): 2.88 µM | TGI (SW-620 colon): > 100 µM | GI50 (TK-10 renal): 3.03 µM | TGI (TK-10 renal): > 100 µM | GI50 (U251 CNS): 3.24 µM | TGI (U251 CNS): 42.6 µM | GI50 (UACC-257 melanoma): 2.37 µM | TGI (UACC-257 melanoma): 7.44 µM | GI50 (UACC-62 melanoma): 2.86 µM | TGI (UACC-62 melanoma): 29.7 µM | GI50 (UO-31 renal): 2.69 µM | TGI (UO-31 renal): 16.8 µM
